Measured values reported in patent US11077116B2, “Isoxazole derivatives as inducers of fetal hemoglobin in erythroid precursor cells from beta-thalassemic patients” (RARE PARTNERS SRL, priority 2017, dated 2021).

Test system: ErPCs (erythroid precursor cells) of β-thalassemic patients
Assay: HPLC analysis of hemoglobins in cell lysates of treated ErPCs (two-phase liquid culture)
Format: cell-based, human
Conditions: for HbF induction: patient Th1 ErPCs (Table II); for HbF induction compared with HU: patient Th10 ErPCs (Table III); for HbF level in treated cells (table title): 100 nM as printed in title
Protocol: Patients were recruited following all the ethical requirements and the approval of the Ethical Committees of Ferrara Hospital. Blood samples were collected from 23 β-thalassemia patients after signature of the informed consent form.
The effects of isoxazole derivatives on cell growth and differentiation of erythroid precursors cells were determined by employing the two-phase liquid culture system and treated for five days with different concentration of the selected compound.
HPLC analyses were done on cell lysates derived from ErPCs of 23 patients and, through careful comparative analyses, we have monitored and quantified HbF, adult hemoglobins (HbA0 and HbA2) and the presence of α-aggregates. Generally, excess of α-globin chains is present in thalassemic patients that are deficient in β-globins, causing α-aggregates formation and precipitation. The α-aggregates reduction represents an important clinical result usually detectable in the presence of efficient HbF inducers.

CCNC(=O)c1noc(-c2cc(C(C)C)c(O)cc2O)c1NC(=O)c1ccc(OC)cc1 [Compound 1]
HbF induction: active in inducing HbF
aggregates α % (patient Th1 ErPCs, 85 nM, untreated C− 6.70): 5.90%
HbF % (patient Th1 ErPCs, 85 nM, untreated C− 15.47): 30.30%
HbA2 % (patient Th1 ErPCs, 85 nM, untreated C− 31.29): 21.39%
HbA0 % (patient Th1 ErPCs, 85 nM, untreated C− 46.54): 42.41%
HbF induction compared with HU: more active than HU in inducing HbF
aggregates α % (patient Th10 ErPCs, 85 nM, untreated C− 11.15): 2.26%
HbF % (patient Th10 ErPCs, 85 nM, untreated C− 17.57): 35.54%
HbA2 % (patient Th10 ErPCs, 85 nM, untreated C− 32.02): 25.81%
HbA0 % (patient Th10 ErPCs, 85 nM, untreated C− 39.26): 36.39%

CCNC(=O)c1noc(-c2cc(C(C)C)c(O)cc2O)c1NC(=O)CCN1CCOCC1 [Compound 2]
HbF induction: active in inducing HbF
aggregates α % (patient Th1 ErPCs, 50 nM, untreated C− 6.70): 2.81%
HbF % (patient Th1 ErPCs, 50 nM, untreated C− 15.47): 21.67%
HbA2 % (patient Th1 ErPCs, 50 nM, untreated C− 31.29): 24.82%
HbA0 % (patient Th1 ErPCs, 50 nM, untreated C− 46.54): 50.70%
HbF induction compared with HU: more active than HU in inducing HbF
aggregates α % (patient Th10 ErPCs, 50 nM, untreated C− 11.15): 2.02%
HbF % (patient Th10 ErPCs, 50 nM, untreated C− 17.57): 36.36%
HbA2 % (patient Th10 ErPCs, 50 nM, untreated C− 32.02): 25.29%
HbA0 % (patient Th10 ErPCs, 50 nM, untreated C− 39.26): 36.34%

NC(=O)NO [HU, hydroxyurea, reference compound]
HbF induction: active in inducing HbF
HbF level in treated cells (table title) (patient Th1 ErPCs, untreated 15.47%): 24.51%
aggregates α % (patient Th1 ErPCs, 100 μM, untreated C− 6.70): 2.80%
HbF % (patient Th1 ErPCs, 100 μM, untreated C− 15.47): 24.51%
HbA2 % (patient Th1 ErPCs, 100 μM, untreated C− 31.29): 33.19%
HbA0 % (patient Th1 ErPCs, 100 μM, untreated C− 46.54): 37.61%
HbF level in treated cells (table title) (patient Th10 ErPCs, untreated 17.57%): 19.42%
aggregates α % (patient Th10 ErPCs, 100 μm, untreated C− 11.15): 11.55%
HbF % (patient Th10 ErPCs, 100 μm, untreated C− 17.57): 19.42%
HbA2 % (patient Th10 ErPCs, 100 μm, untreated C− 32.02): 34.82%
HbA0 % (patient Th10 ErPCs, 100 μm, untreated C− 39.26): 34.22%
